Where a name gives a salt, the structure may show the parent alone.
Assay: Evaluation of compatibility between tegoprazan and clopidogrel sulfate (2 weeks, HDPE bottle)
Format: physicochemical
Details: for content, component in mixture: mixture of tegoprazan and clopidogrel sulfate
Experimental: Example 1. Evaluation of Compatibility Between Tegoprazan and Clopidogrel Sulfate
According to Table 1 above, in order to examine the effect of each of tegoprazan and clopidogrel hydrogen sulfate, compatibility therebetween was evaluated under storage conditions according to the ICH guideline recommendations and drug safety test regulations.
It was shown that, when the two components came into direct contact with each other under each storage condition, the contents of the two components decreased.

[1] = 2 weeks, Accelerated conditions (40° C./RH 75 ± 5%)
[2] = 2 weeks, Stressed conditions (60° C./RH 75 ± 5%)

content, component alone [1] [%] | content, component alone [2] [%] | content, component alone (Initial (room temperature)) [%] | content, component in mixture [1] [%] | content, component in mixture [2] [%] | content, component in mixture (Initial (room temperature)) [%] | Structure (SMILES)
101.1 | 98.3 | 100.2 | 78.9 | 49.0 | 100.3 | COC(=O)[C@H](c1ccccc1Cl)N1CCc2sccc2C1 [Clopidogrel sulfate, methyl (+)-(S)-α-(2-chlorophenyl)-6,7-dihydrothieno[3,2-c]pyridine-5(4H)-acetate]
100.3 | 99.1 | 99.8 | 92.0 | 10.5 | 99.7 | Cc1nc2cc(C(=O)N(C)C)cc(O[C@H]3CCOc4cc(F)cc(F)c43)c2[nH]1 [Tegoprazan, (S)-4-((5,7-difluorochroman-4-yl)oxy)-N,N,2-trimethyl-1H-benzo[d]imidazole-6-carboxamide]
